Data reported in patent US20210322375A1, “COMBINATION DRUG FORMULATIONS FOR TREATING PATIENTS WITH CARDIOVASCULAR DISEASE AND ASSOCIATED CONDITIONS” (Esperion Therapeutics, Inc., priority 2018, published 2021).
“Also recorded” adds a separate entry of the source. Marks after values point to notes of the source that are not given here.

Experiments:
[1] = test system: high cardiovascular risk patients; assay: Phase 3 clinical trial study: LDL-C and hsCRP lowering; format: in vivo, human; settings: ETC-1002 monotherapy
[2] = test system: hypercholesterolemic patients; assay: Phase 2b trial: treatment-emergent adverse events and laboratory safety
Source text: Study Population. Medically stable, hypercholesterolemic men and women aged 18 through 80 years with a body mass index between 18 to 45 kg/m^2 were included in the study. […] The study population included both statin-tolerant and statin-intolerant participants. Statin intolerance was defined as the inability to tolerate ≥2 statins because of muscle-related symptoms such as pain, weakness, or cramping that began or increased during statin therapy and resolved on statin discontinuation. At least 1 statin must have been administered at the lowest approved daily dose, defined as rosuvastatin 5 mg, atorvastatin 10 mg, simvastatin 10 mg, lovastatin 20 mg, pravastatin 40 mg, fluvastatin 40 mg, or pitavastatin 2 mg. Treatment with less than the lowest approved daily dose of a statin (i.e., skipping days) was considered equivalent to not tolerating 1 statin at the lowest approved daily dose.
Overall Study Design and Plan. […] Patients underwent a 5-week washout of all lipid-regulating drugs and dietary supplements and abstained from these drugs and supplements throughout the study. Patients also underwent a 5-week patient-only-blinded placebo run-in during the screening period (week −5 to week 0). This single-blind placebo run-in period was used to eliminate patients with muscle-related AEs during placebo treatment. Patients reporting new or worsening, unexplained muscle-related AEs during this run-in period were excluded from the study.
Patients were stratified (1:1) by history of statin intolerance and randomized at week 0 in a 4:4:4:1:1 ratio to once-daily treatment with capsules containing ETC-1002 120 mg, ETC-1002 180 mg, EZE, ETC-1002 120 mg plus EZE, or ETC-1002 180 mg plus EZE. […] A contract laboratory (Medpace Inc., Cincinnati, Ohio), performed all clinical laboratory tests. LDL-C was calculated using the Friedewald equation. Phlebotomy was performed after a minimum 12-hour fast (water was allowed) and only if the patient took their dose of study drug the previous day.
Safety Endpoints. The safety of ETC-1002 was assessed using treatment-emergent AEs; hematology, serum chemistry, and urinalysis laboratory values; physical examination findings; vital sign measurements; electrocardiogram (ECG) readings; weight; and ankle and waist circumference measurements. AEs were coded using the Medical Dictionary for Regulatory Activities version 16.0 and evaluated by the investigator for severity and relation to study drug. Muscle-related AEs were defined as those from the system organ class of musculoskeletal and connective tissue disorders, except for those that were not obviously muscle related. Terms included in the muscle-related AE analysis were selected from this system organ class after database lock and before unblinding.
Safety analyses were performed on the safety population, which included randomized patients who received at least 1 dose of study drug. Baseline patient characteristics were summarized for the safety population by treatment group and statin-tolerance subgroup.
Muscle-related AEs also were summarized by statin-tolerance subgroup.

[3] = test system: high cardiovascular risk patients; assay: Phase 3 clinical trial study: safety and tolerability; settings: human, in vivo
Source text: In a phase 3 clinical trial study consisting of 382 high cardiovascular risk patients who are receiving maximally tolerated statin therapy, treatment of ETC-1002 in combination with Ezetimibe provided clinically and statistically significant lowering of both LDL-C and hsCRP levels by about 35% and about 34% respectively. For patients who are on maximally tolerated statins and received the combination therapy of ETC-1002 and Ezetimibe, no increases in muscle-related adverse effects and no elevations in liver function tests were observed as compared to patients receiving the placebo treatment.

[4] = test system: hypercholesterolemic patients; assay: Phase 2b randomized double-blind trial: percent change from baseline to week 12 in lipids and CRP; format: in vivo, human; settings: for LDL-C reduction: baseline to week 12; for Apolipoprotein A-I, percent change from baseline to week 12 / Apolipoprotein B, percent change from baseline to week 12 / HDL particle number, percent change from baseline to week 12 / HDL-C, percent change from baseline to week 12 / LDL particle number, percent change from baseline to week 12 / LDL-C, percent change from baseline to week 12 / Non-HDL-C, percent change from baseline to week 12 / Total cholesterol, percent change from baseline to week 12: LS mean ± SE; for CRP, percent change from baseline to week 12 / Triglycerides, percent change from baseline to week 12 / VLDL particle number, percent change from baseline to week 12: median (interquartile range)
Description: Brief Description of Clinical Study and Results.
Study Objectives. The primary objective was to assess the LDL-C-lowering effect of ETC-1002 monotherapy (120 mg or 180 mg daily) versus EZE monotherapy in hypercholesterolemic patients with or without statin intolerance. Secondary objectives were to characterize the dose response of ETC-1002, evaluate the impact of treatment on other lipid and cardiometabolic biomarkers, compare the LDL-C-lowering effect of ETC-1002 plus EZE combination therapy with EZE monotherapy, and characterize the safety and tolerability of the treatment regimens, including muscle-related adverse events (AEs).
Overall Study Design and Plan. […] 16, 2013 to Aug.
LDL-C was calculated using the Friedewald equation.
Efficacy Endpoints. The primary endpoint was the percent change from baseline to week 12 in calculated LDL-C in patients treated with ETC-1002 monotherapy versus those treated with EZE alone. Secondary endpoints included the dose-response relationship between ETC-1002 and the percent change in LDL-C from baseline to week 12, the percent change in LDL-C from baseline to week 12 in patients treated with ETC-1002 plus EZE versus those treated with EZE alone, and the percent change from baseline to week 12 for all treatment groups in LDL particle number, apolipoprotein B, total cholesterol, non-high-density lipoprotein cholesterol (non-HDL-C), HDL-C, HDL particle number, apolipoprotein A-I, triglycerides, very-low-density lipoprotein (VLDL) particle number, and high-sensitivity C-reactive protein (CRP). Lipoprotein particle number was measured using nuclear magnetic resonance […].
Statistical Plan and Analyses. The study was designed to include 322 patients: 92 patients in each monotherapy group and 23 patients in each combination therapy group. Sample size calculations were performed using nQuery Advisor® version 7.0 (Statistical Solutions, Cork, Ireland). The sample size of 92 patients per monotherapy group was expected to provide 90% power to detect a difference of 10% in the absolute percent change from baseline to week 12 in LDL-C between either ETC-1002 treatment group and the EZE monotherapy group. This calculation was based on a 2-sided t test at the 5% level of significance and assumed a common standard deviation of 15% in the statin-tolerant patients and 22% in the statin-intolerant patients with a dropout rate of 15%.
An analysis of covariance was used to compare each ETC-1002 treatment group with EZE monotherapy for each of the efficacy endpoints. The primary model included the effects of treatment and statin intolerance and the baseline value as a covariate. Baseline was defined as the mean of values from weeks −1 and 0 for LDL-C, non-HDL-C, total cholesterol, HDL-C, and triglycerides. For all other lipid and biomarker measures, baseline was defined as the last value before the first dose of study drug. Missing values at week 12 were imputed using the last-observation-carried-forward procedure. When LDL-C could not be calculated (i.e., triglycerides >400 mg/dL), beta-quantification measurements were used to determine LDL-C values. Least-squares (LS) means and standard errors were obtained for each treatment group; differences in LS means and p-values were obtained for the treatment comparisons. Graphical methods (e.g., normal probability plot and histogram of residuals, plot of residuals vs. predicted values) or analytical methods (e.g., Shapiro-Wilk test), or both, were used to assess the model assumptions. Because of departures from normality observed in the parameters of triglycerides, CRP, and VLDL particle number, nonparametric analyses were performed for these measures, with p-values obtained from the Wilcoxon rank-sum test and median values presented.
Percent changes from baseline in LDL-C also were summarized by statin-tolerance subgroup. […]

[5] = ETC-1002 120 mg daily, safety population n = 99
[6] = ETC-1002 180 mg daily, safety population n = 100
[7] = statin-intolerant patients, ETC-1002 120 mg, n = 51
[8] = statin-intolerant patients, ETC-1002 180 mg, n = 51
[9] = statin-tolerant patients, ETC-1002 120 mg, n = 48
[10] = statin-tolerant patients, ETC-1002 180 mg, n = 49
[11] = ETC-1002 120 mg daily, mITT n = 97
[12] = ETC-1002 180 mg daily, mITT n = 99

## CC(C)(CCCCCC(O)CCCCCC(C)(C)C(=O)O)C(=O)O [ETC-1002, 8-hydroxy-2,2,14,14 tetramethylpentadecanedioic acid]
[1]; patients not receiving background statin therapy
  LDL-C lowering: ≥ 30%
[1]; patients receiving background statin therapy
  LDL-C lowering: ≥ 20%
[1]; patients receiving maximally tolerated statin therapy
  hsCRP lowering: 22-40%
[2]; ETC-1002 120 mg
  ALT or AST, or both, increased >3 times the upper limit of normal at any measurement: 1 patient
  Myalgia, patients, entire study population: 3%
  Serious AE reported (event): hemothorax; also recorded: sudden death
[2]; [5]
  ALT increased, patients: 0 n (%)
  AST increased, patients: 0 n (%)
  Any AE(s), patients: 50 (51%) n (%)
  Arthralgia, patients: 4 (4%) n (%)
  Back pain, patients: 1 (1%) n (%)
  Blood CK increased, patients: 1 (1%) n (%)
  Constipation, patients: 3 (3%) n (%)
  Discontinuation due to AE(s), patients: 3 (3%) n (%)
  Headache, patients: 3 (3%) n (%)
  Myalgia, patients: 3 (3%) n (%)
  Nasopharyngitis, patients: 3 (3%) n (%)
  Serious AE(s), patients: 2 (2%) n (%)
  Study drug-related AE(s), patients: 13(13%) n (%)
  Upper respiratory tract infection, patients: 6 (6%) n (%)
  Urinary tract infection, patients: 0 n (%)
[2]; ETC-1002 180 mg
  ALT or AST, or both, increased >3 times the upper limit of normal at any measurement: 2 patients
  Myalgia, patients, entire study population: 1%
  Serious AE reported (event): pancreatitis relapse
[2]; [6]
  ALT increased, patients: 0 n (%)
  AST increased, patients: 0 n (%)
  Any AE(s), patients: 55 (55%) n (%)
  Arthralgia, patients: 1 (1%) n (%)
  Back pain, patients: 1 (1%) n (%)
  Blood CK increased, patients: 4 (4%) n (%)
  Constipation, patients: 1 (1%) n (%)
  Discontinuation due to AE(s), patients: 6 (6%) n (%)
  Headache, patients: 2 (2%) n (%)
  Myalgia, patients: 1 (1%) n (%)
  Nasopharyngitis, patients: 5 (5%) n (%)
  Serious AE(s), patients: 1 (1%) n (%)
  Study drug-related AE(s), patients: 18 (18%) n (%)
  Upper respiratory tract infection, patients: 6 (6%) n (%)
  Urinary tract infection, patients: 4 (4%) n (%)
[2]; [7]
  Any muscle-related AE, patients: 7 (14%) n (%)
  Muscle spasms, patients: 3 (6%) n (%)
  Muscle-related AE leading to discontinuation, patients: 1 (2%) n (%)
  Muscular weakness, patients: 2 (4%) n (%)
  Musculoskeletal chest pain, patients: 0 n (%)
  Musculoskeletal stiffness, patients: 0 n (%)
  Myalgia, patients: 2 (4%) n (%)
  Pain in extremity, patients: 1 (2%) n (%)
  Sensation of heaviness, patients: 0 n (%)
[2]; [8]
  Any muscle-related AE, patients: 6 (12%) n (%)
  Muscle spasms, patients: 2 (4%) n (%)
  Muscle-related AE leading to discontinuation, patients: 2 (4%) n (%)
  Muscular weakness, patients: 1 (2%) n (%)
  Musculoskeletal chest pain, patients: 1 (2%) n (%)
  Musculoskeletal stiffness, patients: 0 n (%)
  Myalgia, patients: 1 (2%) n (%)
  Pain in extremity, patients: 1 (2%) n (%)
  Sensation of heaviness, patients: 0 n (%)
[2]; [9]
  Any muscle-related AE, patients: 1 (2%) n (%)
  Muscle spasms, patients: 0 n (%)
  Muscle-related AE leading to discontinuation, patients: 0 n (%)
  Musculoskeletal pain, patients: 0 n (%)
  Myalgia, patients: 1 (2%) n (%)
[2]; [10]
  Any muscle-related AE, patients: 0 n (%)
  Muscle spasms, patients: 0 n (%)
  Muscle-related AE leading to discontinuation, patients: 0 n (%)
  Musculoskeletal pain, patients: 0 n (%)
  Myalgia, patients: 0 n (%)
[3]
  Increases in muscle-related adverse effects or serious adverse effects: without any increases
  Tolerability: well tolerated and safe
[4]; ETC-1002 120 mg
  CRP decrease from baseline to week 12 endpoint, median: 30%
[4]; ETC-1002 120 mg alone
  LDL-C reduction: 27%
[4]; [11]
  Apolipoprotein A-I, percent change from baseline to week 12: −0.2 ± 1.1%
  Apolipoprotein B, percent change from baseline to week 12: −19.3 ± 1.3 %
  HDL particle number, percent change from baseline to week 12: 5.0 ± 1.3%
  HDL-C, percent change from baseline to week 12: −5.8 ± 1.4 %
  LDL particle number, percent change from baseline to week 12: −21.8 ± 1.7 %
  LDL-C, percent change from baseline to week 12: −27.5 ± 1.3 %
  Non-HDL-C, percent change from baseline to week 12: −23.2 ± 1.2 %
  Total cholesterol, percent change from baseline to week 12: −19.3 ± 0.9 %
  CRP, percent change from baseline to week 12: −30.1 (55.4)† %
  Triglycerides, percent change from baseline to week 12: 0.0 (41.6) %
  VLDL particle number, percent change from baseline to week 12: −2.7 (68.5) %
[4]; ETC-1002 180 mg
  CRP decrease from baseline to week 12 endpoint, median: 40%
[4]; ETC-1002 180 mg alone
  LDL-C reduction: 30%
[4]; [12]
  Apolipoprotein A-I, percent change from baseline to week 12: 0.1 ± 1.2%
  Apolipoprotein B, percent change from baseline to week 12: −21.3 ± 1.3 %
  HDL particle number, percent change from baseline to week 12: 6.2 ± 1.4%
  HDL-C, percent change from baseline to week 12: −4.8 ± 1.4 %
  LDL particle number, percent change from baseline to week 12: −24.6 ± 1.8 %
  LDL-C, percent change from baseline to week 12: −30.1 ± 1.3 %
  Non-HDL-C, percent change from baseline to week 12: −25.3 ± 1.1 %
  Total cholesterol, percent change from baseline to week 12: −20.7 ± 0.9 %
  CRP, percent change from baseline to week 12: −40.2 (53.3)† %
  Triglycerides, percent change from baseline to week 12: −2.7 (46.2) %
  VLDL particle number, percent change from baseline to week 12: 15.3 (80.5) %
[4]; ETC-1002 monotherapy 120 mg or 180 mg
  LDL-C reduction, ETC-1002 alone (maximum): up to 30%
